# Patent US20110230467A1, “4,6-DIAMINONICOTINAMIDE COMPOUND” (Astellas Pharma Inc., priority 2008, published 2011)
# Biological target: T1, human JAK3 kinase domain (Homo sapiens, UniProt P52333)
# T1 construct: attached to the N-terminal of the 796-1124 (C-terminal) fragment of the human JAK3 protein; His-tag (N); purchased Carna Biosciences, Inc. (Kobe, Japan); host or cells: baculovirus expression system
# Assay: JAK3 Inhibition Test (Test Example 1)
# Assay type: biochemical
# Conditions: purified human JAK3 kinase domain; 20 μM ATP in substrate solution; absorbance at 450 nm; read-out: IC50 (JAK3 inhibitory activity)
# From the text: (1) Preparation of Human JAK3
# Purified human JAK3 kinase domain was purchased from Carna Biosciences, Inc. (Kobe, Japan). This was afforded as described below. His-tag (41 kDa) was attached to the N-terminal of the 796-1124 (C-terminal) fragment of the human JAK3 protein (accession number #NM_000215), expressed using a baculovirus expression system, and then purified using Ni-NTA affinity column chromatography.
# (2) Measurement of JAK3 Activity
# As substrates, Biotin-Lyn-Substrate-2 (Biotin-XEQED EPEGF YFEWL EPE), X=ε-Acp (Peptide Institute, Inc., Osaka, Japan) and ATP were used. As an assay buffer, 15 mM Tris-HCl, pH 7.5, containing 0.01% Tween 20, and 2 mM DTT (dithiothreitol) was used. Normally, 20 μL of a substrate solution (an assay buffer containing 627 nM Biotin-Lyn-Substrate-2, 20 μM ATP, and 25 mM MgCl2), an assay buffer containing 10 μL of a compound to be tested, and 20 μL of an enzyme solution were added to a microplate, and stirred sufficiently.
# After incubation at room temperature for one hour, the plate was washed with a cleaning buffer (50 mM Tris-HCl pH 7.5, 150 mM NaCl, 0.02% Tween 20), and a blocking buffer (a cleaning buffer containing 0.1% Bovine Serum Albumin) was added to the plate. After incubation at room temperature for 30 minutes, the blocking buffer was removed, and an HRP-PY-20 solution (afforded by diluting the HRP-PY-20 solution with the blocking buffer 500 times) was added. After incubation at room temperature for 30 minutes, the plate was washed four times, and a TMB substrate solution (Sigma) was added to the plate. After incubation at room temperature for 4 minutes, 1 M sulfuric acid was added to stop the reaction. Enzyme activity was measured as an absorbance at 450 nm. The JAK3 inhibitory activity of the test compound was calculated assuming that the concentration of the test compound inhibiting JAK3 activity by 50% is an IC50 value.
# T1 sequence (P52333 796-1124): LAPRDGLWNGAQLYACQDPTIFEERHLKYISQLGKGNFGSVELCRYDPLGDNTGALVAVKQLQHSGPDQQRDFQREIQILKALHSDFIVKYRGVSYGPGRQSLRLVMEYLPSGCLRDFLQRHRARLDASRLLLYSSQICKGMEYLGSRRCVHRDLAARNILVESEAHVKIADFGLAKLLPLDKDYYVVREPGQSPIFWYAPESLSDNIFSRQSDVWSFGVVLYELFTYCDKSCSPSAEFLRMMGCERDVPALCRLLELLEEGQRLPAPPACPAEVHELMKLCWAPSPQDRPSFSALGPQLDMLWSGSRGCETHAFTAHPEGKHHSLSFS
row,SMILES,IC50 [nM]
1,N#Cc1ccc(N2CC[C@@H](Nc3cc(Nc4cnccn4)ncc3C(N)=O)[C@@H](F)C2)nc1 [Example 5-7],0.21
2,Cc1nccc(Nc2cc(NC3CCN(c4ccc(C#N)cc4)CC3)c(C(N)=O)cn2)n1 [Example 5-8],0.8
3,Cc1nccc(Nc2cc(NC3CCN(c4ccc(C#N)cn4)CC3)c(C(N)=O)cn2)n1 [Example 5-9],0.36
4,N#Cc1ccc(N2CC[C@@H](Nc3cc(Nc4ccncn4)ncc3C(N)=O)[C@@H](F)C2)nc1 [Example 5-10],0.29
5,N#Cc1ccc(N2CC[C@@H](Nc3cc(Nc4cnccn4)ncc3C(N)=O)[C@@H](F)C2)nn1 [Example 5-11],0.34
6,N#Cc1cnc(N2CC[C@@H](Nc3cc(Nc4ccncn4)ncc3C(N)=O)[C@@H](F)C2)cn1 [Example 5-15],1
7,N#Cc1ccc(N2CCC(Nc3cc(Nc4ccncn4)ncc3C(N)=O)CC2)nn1 [Example 5-18],1.1
8,Cc1cnc(Nc2cc(NC3CCN(c4ccc(C#N)nn4)CC3)c(C(N)=O)cn2)cn1 [Example 5-22],2
9,N#Cc1ccc(N2CCC(Nc3cc(Nc4ccncn4)ncc3C(N)=O)CC2)cn1 [Example 5-25],0.24
10,Cc1nccc(Nc2cc(N[C@@H]3CCN(c4ccc(C#N)cn4)C[C@@H]3F)c(C(N)=O)cn2)n1 [Example 5-26],0.39
11,N#Cc1ccc(N2CCC(Nc3cc(Nc4ccc(N5CCCC5=O)cn4)ncc3C(N)=O)CC2)nc1 [Example 5-46],0.86
12,N#Cc1ccc(N2CC[C@@H](Nc3cc(Nc4ccc(N5CCCCC5=O)cn4)ncc3C(N)=O)[C@@H](F)C2)nc1 [Example 5-55],0.74
13,N#Cc1ccc(N2CCC(Nc3cc(Nc4ccc(N5C(=O)[C@H]6CC[C@@H]5C6)cn4)ncc3C(N)=O)CC2)nc1 [Example 5-67],0.9
14,N#Cc1ccc(N2CC[C@@H](Nc3cc(Nc4ccccn4)ncc3C(N)=O)[C@@H](F)C2)nc1 [Example 5-72],0.14
15,COCc1ccc(Nc2cc(N[C@@H]3CCN(c4ccc(C#N)cn4)C[C@@H]3F)c(C(N)=O)cn2)nc1 [Example 5-73],0.24
16,NC(=O)c1cnc(Nc2ccc(C(=O)N3CCCC3)cn2)cc1NCc1c(F)cccc1F [Example 8-6],0.74
17,COC1CCN(C(=O)c2ccc(Nc3cc(NCc4c(F)cccc4F)c(C(N)=O)cn3)nc2)CC1 [Example 8-7],0.8
18,CN1CCN(C(=O)c2ccc(Nc3cc(NCc4c(F)cccc4F)c(C(N)=O)cn3)nc2)CC1 [Example 8-8],1
19,CN1CCCN(C(=O)c2ccc(Nc3cc(NCc4c(F)cccc4F)c(C(N)=O)cn3)nc2)CC1 [Example 8-9],1.6
20,NC(=O)c1cnc(Nc2cnccn2)cc1NCc1c(F)ccc(F)c1F [Example 12-50],1
21,NC(=O)c1cnc(Nc2ccc(N3CCCCC3=O)cn2)cc1NCc1c(F)ccc(F)c1F [Example 12-54],0.69
22,CN1CCN(c2ccc(Nc3cc(NCc4c(F)ccc(F)c4F)c(C(N)=O)cn3)nc2)C(=O)C1 [Example 12-73],0.58
23,CN1CCC(=O)N(c2ccc(Nc3cc(NCc4c(F)ccc(F)c4F)c(C(N)=O)cn3)nc2)CC1 [Example 12-74],0.74
24,NC(=O)c1cnc(Nc2ccc(N3CCOCC3=O)cn2)cc1NCc1c(F)ccc(F)c1F [Example 12-76],0.43
25,NC(=O)c1cnc(Nc2ccc(N3C(=O)[C@@H]4CC[C@H]3C4)cn2)cc1NCc1c(F)ccc(F)c1F [Example 12-78],0.69
26,NC(=O)c1cnc(Nc2ccc(N3CCCCCC3=O)cn2)cc1NCc1c(F)ccc(F)c1F [Example 12-79],0.79
27,NC(=O)c1cnc(Nc2ccc(N3C(=O)[C@H]4CC[C@@H]3C4)cn2)cc1NCc1c(F)ccc(F)c1F [Example 12-80],0.69
28,NC(=O)c1cnc(Nc2ccc(N3CCOCCC3=O)cn2)cc1NCc1c(F)ccc(F)c1F [Example 12-81],0.56
29,CN1C(=O)N(c2ccc(Nc3cc(NCc4c(F)ccc(F)c4F)c(C(N)=O)cn3)nc2)C(=O)C1(C)C [Example 12-91],0.44
30,CN1CCC(=O)N(c2ccc(Nc3cc(NCc4c(F)cccc4F)c(C(N)=O)cn3)nc2)CC1 [Example 12-97],0.25
